In patent US12427210B2, “Compounds comprising a fibroblast activation protein ligand and use thereof” (priority 2019, dated 2025):
Numbered stars: 1 amine (or outer) side, 2 acyl side, 3 side chain; on linkers, the order of the positions; unused ones are H or OH. Bridge positions count the residues as written; N and C are the ends. Peptide text beside a SMILES is read from it. * marks the point of attachment. X5 = O=C1CN2CCN3CCN(CC(=O)N4CCN(Cc5cc(C[*:1])cc(C[*:2])c5)CC4)CCN(CC2)CC(=O)[O][Eu]([O]1)[O]C(=O)C3; Hexanoyl = CCCCCC(=O)*

What was measured:
HEK-FAP tumors = assay: Efficacy study HEK-FAP
Sarc4809 PDX tumors = assay: Efficacy study sarcoma Sarc4809 PDX model
NMDA = settings: read-out: Ki Ref; reference compound
alpha 1A (h) = target: T1, alpha 1A (h) (Homo sapiens, UniProt P35348); settings: read-out: Ki Ref; reference compound
T1 sequence (P35348 1-466): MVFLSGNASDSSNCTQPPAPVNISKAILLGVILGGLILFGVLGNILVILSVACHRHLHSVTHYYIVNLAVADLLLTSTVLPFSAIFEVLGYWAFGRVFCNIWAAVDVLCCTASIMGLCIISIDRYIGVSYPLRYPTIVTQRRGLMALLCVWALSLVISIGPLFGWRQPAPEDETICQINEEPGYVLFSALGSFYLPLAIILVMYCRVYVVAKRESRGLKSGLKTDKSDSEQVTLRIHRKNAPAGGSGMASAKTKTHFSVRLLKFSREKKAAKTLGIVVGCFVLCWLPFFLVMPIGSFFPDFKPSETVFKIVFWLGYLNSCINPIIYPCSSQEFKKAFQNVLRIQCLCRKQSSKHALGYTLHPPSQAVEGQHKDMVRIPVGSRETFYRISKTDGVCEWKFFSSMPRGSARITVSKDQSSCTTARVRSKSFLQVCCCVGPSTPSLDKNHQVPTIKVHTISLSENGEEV

Caspase-3 = target: T2, Caspase-3 (Homo sapiens, UniProt P42574); settings: 100 nM
T2 sequence (P42574 29-175 limits assumed): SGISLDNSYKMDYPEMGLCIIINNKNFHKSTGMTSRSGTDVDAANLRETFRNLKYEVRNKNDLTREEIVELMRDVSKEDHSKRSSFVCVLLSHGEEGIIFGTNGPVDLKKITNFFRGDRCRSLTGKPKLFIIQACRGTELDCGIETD
T2 sequence (P42574 176-277 limits assumed): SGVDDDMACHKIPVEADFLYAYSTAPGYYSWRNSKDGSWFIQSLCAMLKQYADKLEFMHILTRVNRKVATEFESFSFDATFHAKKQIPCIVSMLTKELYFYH

Caspase-7 = target: T3, Caspase-7 (Homo sapiens, UniProt P55210); settings: 1 μM
T3 sequence (P55210 24-198 limits assumed): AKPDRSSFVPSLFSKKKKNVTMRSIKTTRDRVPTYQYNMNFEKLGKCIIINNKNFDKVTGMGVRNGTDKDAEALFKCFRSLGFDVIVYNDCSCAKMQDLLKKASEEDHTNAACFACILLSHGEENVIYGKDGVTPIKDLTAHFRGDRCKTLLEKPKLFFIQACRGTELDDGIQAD
T3 sequence (P55210 207-303 limits assumed): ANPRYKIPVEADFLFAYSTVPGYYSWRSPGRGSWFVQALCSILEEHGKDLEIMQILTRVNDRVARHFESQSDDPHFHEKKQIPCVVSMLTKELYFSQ

[1] = target: FAP-expressing human WI-38 fibroblasts (Homo sapiens, UniProt Q12884); assay: cell-based
FAP [2] = target: T4, FAP (Homo sapiens, UniProt Q12884); assay: biochemical
5-HT2B (h) = 5-HT2B (h) (Homo sapiens, UniProt P41595); settings: read-out: Ki Ref; reference compound
Renin = target: T5, Renin (Homo sapiens, UniProt P00797); assay: biochemical; settings: read-out: Percentage inhibition (%), Reference
T5 sequence (P00797 67-406): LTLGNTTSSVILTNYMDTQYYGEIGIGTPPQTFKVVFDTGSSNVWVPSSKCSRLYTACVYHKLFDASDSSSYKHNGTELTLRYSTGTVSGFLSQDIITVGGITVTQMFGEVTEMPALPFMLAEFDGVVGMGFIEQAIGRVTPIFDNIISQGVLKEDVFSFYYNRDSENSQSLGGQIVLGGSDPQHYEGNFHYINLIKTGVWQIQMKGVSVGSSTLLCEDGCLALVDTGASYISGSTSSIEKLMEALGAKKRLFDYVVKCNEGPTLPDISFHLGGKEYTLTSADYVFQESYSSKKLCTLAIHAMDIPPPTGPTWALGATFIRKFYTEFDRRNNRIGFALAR

Activated Protein C = Activated Protein C (Homo sapiens, UniProt P04070); assay: biochemical; settings: read-out: Percentage inhibition (%), Reference
in vitro [3] = settings: human, plasma
in vitro [4] = settings: mouse, plasma
in vitro [5] = settings: rat, plasma
FAP [6] = target: T4, FAP; assay: biochemical; remark: listed apart in the source
KV channel = settings: read-out: Ki Ref; reference compound
Cathepsin F = target: T6, Cathepsin F (Homo sapiens, UniProt Q9UBX1); settings: 1 μM
T6 sequence (Q9UBX1 271-484): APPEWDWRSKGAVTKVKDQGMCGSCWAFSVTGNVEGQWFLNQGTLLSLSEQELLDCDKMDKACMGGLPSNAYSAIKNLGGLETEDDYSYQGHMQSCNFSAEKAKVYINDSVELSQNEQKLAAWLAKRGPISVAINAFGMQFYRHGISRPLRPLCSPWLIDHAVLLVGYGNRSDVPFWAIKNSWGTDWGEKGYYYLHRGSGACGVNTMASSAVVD

Cathepsin B = Cathepsin B (Homo sapiens, UniProt P07858); settings: 100 nM
Cathepsin L = Cathepsin L (Homo sapiens, UniProt P07711); settings: 1 μM
Cathepsin S = Cathepsin S (Homo sapiens, UniProt P25774); settings: 100 nM
Cathepsin V = Cathepsin V (Homo sapiens, UniProt O60911); settings: 100 nM
[7] = throughout the study, all groups

With `CCCCCC(=O)N[C@H]1CSCc2cc(CSCCNC(=O)CN3CCN(CC(=O)O)CCN(CC(=O)O)CCN(CC(=O)O)CC3)cc(c2)CSC[C@@H](C(=O)O)NC(=O)[C@H](Cc2ccccc2)NC(=O)[C@H](CCC(N)=O)NC(=O)[C@H]([C@@H](C)O)NC(=O)[C@@H]2CCCN2C(=O)[C@@H]2CCCN2C1=O` [^177Lu-3BP-3554, metal not drawn] the body weight loss (HEK-FAP tumors; [7]) was “No treatment-related body weight loss” and the “body weight loss (BWL)” value (Sarc4809 PDX tumors; [7]) was “No treatment-related body weight loss”.
`O=C(O)[C@@H]1C[C@H](CP(=O)(O)O)CCN1` [CGS 19755, reference compound] showed a Ki (NMDA) of 140 nM.
`COc1cccc(OC)c1OCCNCC1COc2ccccc2O1` (stereo not shown) [WB 4101] showed a Ki (alpha 1A (h)) of 0.24 nM.
With `COC[C@@H]1CCCN1S(=O)(=O)c1ccc2c(c1)C(=O)C(=O)N2` [Caspase 3/7 Inhibitor I] the “Percentage inhibition (%), Reference” value (Caspase-3) was 89% and the “Percentage inhibition (%), Reference” value (Caspase-7) was 92%.
Work on `CCCCCC(=O)N[C@H]1CSCc2cc(CSCCNC(=O)CN3CCN4CCN(CC(=O)O)CCN(CC3)CC(=O)[O][Cu][O]C(=O)C4)cc(c2)CSC[C@@H](C(=O)O)NC(=O)[C@H](Cc2ccccc2)NC(=O)[C@H](CCC(N)=O)NC(=O)[C@H]([C@@H](C)O)NC(=O)[C@@H]2CCCN2C(=O)[C@@H]2CCCN2C1=O` [Compound 3BP-4293, Hex-[Cys-(tMeBn(CuDOTA-AET))-Pro-Pro-Thr-Gln-Phe-Cys]-OH] yielded an IC50 [1] of less than 10 nM and an IC50 (FAP [2]) of less than 10 nM.
In the case of `CCCCCC(=O)N[C@H]1CSCc2cc(CSCCNC(=O)CN3CCN4CCN5CCN(CC3)CC(=O)[O][Lu]([O]C(=O)C4)[O]C(=O)C5)cc(c2)CSC[C@@H](C(=O)O)NC(=O)[C@H](Cc2ccccc2)NC(=O)[C@H](CCC(N)=O)NC(=O)[C@H]([C@@H](C)O)NC(=O)[C@@H]2CCCN2C(=O)[C@@H]2CCCN2C1=O` [^natLu-3BP-3554], the “mean tumor volume (MTV)” value (HEK-FAP tumors; cold compound, single i.v. injection Day 0, day 14) is reported as 1392±420 mm^3 and the MTV (Sarc4809 PDX tumors; cold compound (control group), day 31) is reported as 1225±775 mm^3.
Compound `COc1cc(CC(C)N)c(OC)cc1I` (racemic) [(±)DOI] has a Ki (5-HT2B (h)) of 4.2 nM.
With `COCCCOc1cc(C[C@@H](C[C@H](N)[C@@H](O)C[C@H](C(=O)NCC(C)(C)C(N)=O)C(C)C)C(C)C)ccc1OC` [Aliskiren, reference compound] the inhibition at 0.03 µM (Renin) was 99%.
Compound `[H]/N=C(/N)c1ccc(NCc2nc3cc(C(=O)N(CCC(=O)O)c4ccccn4)ccc3n2C)cc1` [Dabigatran, reference compound] has an inhibition at 20 µM (Activated Protein C) of 74%.
With `CCCCCC(=O)N[C@H]1CSCc2cc(CSCCNC(=O)CN3CCN4CCN5CCN(CC3)CC(=O)[O][Lu]([O]C(=O)C4)[O]C(=O)C5)cc(c2)CSC[C@@H](C(=O)O)NC(=O)[C@H](Cc2ccccc2)NC(=O)[C@H](CCC(N)=O)NC(=O)[C@H]([C@@H](C)O)NC(=O)[C@@H]2CCCN2C(=O)[C@@H]2CCCN2C1=O` [Compound 3BP-3624, Hex-[Cys(tMeBn(LuDOTA-AET))-Pro-Pro-Thr-Gln-Phe-Cys]-OH] the remaining at 24 h, 9.8 µM (in vitro [3]) was 100%, the remaining at 24 h, 9.8 µM (in vitro [4]) was 100% and the remaining at 24 h, 9.8 µM (in vitro [5]) was 100%. For the same compound, the IC50 [1] was less than 10 nM, the IC50 (FAP [2]) was less than 10 nM and the Kd (FAP [6]) was less than 10 nM.
For `CCCCCC(=O)N[C@H]1CSCc2cc(cc(CN3CCN(C(=O)CN4CCN5CCN6CCN(CC4)CC(=O)[O][Eu]([O]C(=O)C6)[O]C(=O)C5)CC3)c2)CSC[C@@H](C(=O)N[C@@H](CC(=O)O)C(N)=O)NC(=O)[C@H](Cc2ccccc2)NC(=O)[C@H](CCC(N)=O)NC(=O)[C@H]([C@@H](C)O)NC(=O)[C@@H]2CCCN2C(=O)[C@@H]2CCCN2C1=O` [Compound 3BP-3661, Hex-[Cys(tMeBn(EuDOTA-PP))-Pro-Pro-Thr-Gln-Phe-Cys]-Asp-NH2] (Hexanoyl-CPPTQFCD-NH2; linker 1-7 via X5), the IC50 [1] was less than 10 nM and the IC50 (FAP [2]) was less than 10 nM.
Work on alpha-dendrotoxin [reference compound] yielded a Ki (KV channel) of 0.097 nM.
Work on `CCCCCC(=O)N[C@H]1CSCc2cc(CSCCNC(=O)CN3CCN4CCN5CCN(CC3)CC(=O)[O][Eu]([O]C(=O)C4)[O]C(=O)C5)cc(c2)CSC[C@@H](C(=O)O)NC(=O)[C@H](Cc2ccccc2)NC(=O)[C@H](CCC(N)=O)NC(=O)[C@H]([C@@H](C)O)NC(=O)[C@@H]2CCCN2C(=O)[C@@H]2CCCN2C1=O` [Compound 3BP-3662, Hex-[Cys(tMeBn(EuDOTA-AET))-Pro-Pro-Thr-Gln-Phe-Cys]-OH] yielded an IC50 [1] of less than 10 nM and an IC50 (FAP [2]) of less than 10 nM.
For Cystatin C, the “Percentage inhibition (%), Reference” value (Cathepsin F) was 74%.
`CCCCCC(=O)N[C@H]1CSCc2cc(CSCCNC(=O)CN3CCN4CCN(CC(=O)O)CCN(CC3)CC(=O)[O][Zn][O]C(=O)C4)cc(c2)CSC[C@@H](C(=O)O)NC(=O)[C@H](Cc2ccccc2)NC(=O)[C@H](CCC(N)=O)NC(=O)[C@H]([C@@H](C)O)NC(=O)[C@@H]2CCCN2C(=O)[C@@H]2CCCN2C1=O` [Compound 3BP-4343, Hex-[Cys-(tMeBn(ZnDOTA-AET))-Pro-Pro-Thr-Gln-Phe-Cys]-OH] showed an IC50 [1] of less than 10 nM and an IC50 (FAP [2]) of less than 10 nM.
With `CC(C)C[C@H](NC(=O)[C@H]1O[C@@H]1C(=O)O)C(=O)NCCCCN=C(N)N` [Compound E-64, E-64] the “Percentage inhibition (%), Reference” value (Cathepsin B) was 97%, the “Percentage inhibition (%), Reference” value (Cathepsin L) was 97% and the “Percentage inhibition (%), Reference” value (Cathepsin S) was 91%. The “Percentage inhibition (%), Reference” value (Cathepsin V) was 83%.
`CCCCCC(=O)N[C@H]1CSCc2cc(CSCCNC(=O)CN3CCN4CCN5CCN(CC3)CC(=O)[O][Ga]([O]C(=O)C4)[O]C(=O)C5)cc(c2)CSC[C@@H](C(=O)O)NC(=O)[C@H](Cc2ccccc2)NC(=O)[C@H](CCC(N)=O)NC(=O)[C@H]([C@@H](C)O)NC(=O)[C@@H]2CCCN2C(=O)[C@@H]2CCCN2C1=O` [Compound 3BP-3949, Hex-[Cys(tMeBn(GaDOTA-AET))-Pro-Pro-Thr-Gln-Phe-Cys]-OH] gave an IC50 [1] of less than 10 nM, an IC50 (FAP [2]) of less than 10 nM and a Kd (FAP [6]) of less than 10 nM.
